Results from patent US6500858B2, “Taxoid anti-tumor agents and pharmaceutical compositions thereof” (The Research Foundation of the state University of New York, priority 1994, dated 2002).
Where “and” joins values, the source holds several entries; their conditions need not be identical. Equal entries are not always repeated.

Experiments:
[1] = tested on: multi-drug resistant phenotype human colon carcinoma cells HCT-116/VM; conditions: cited from earlier work
MCF7 (mammary carcinoma) = assay: tumor cell growth inhibition (SRB, 72 h drug exposure); type: cell-based, human; conditions: 72 h drug exposure, Table 1; read-out: MCF7 (breast) IC50
Procedure: (§1) Lower numbers indicate higher potency. […] The data represent the mean values of at least three separate experiments. Lower numbers indicate greater activity.
(§2) Assessment of cell growth inhibition was determined according to the methods of Skehan et al., J. Nat. Cancer Inst. […] Briefly, cells were plated between 400 and 1200 cells/well in 96 well plates and incubated at 37° C. for 15-18 h prior to drug addition to allow attachment of cells. […] After a 72 h incubation, […] of ice-cold 50% TCA was added to each well and incubated for 1 h at 4° C. Plates were then washed 5 times with tap water to remove TCA, low-molecular-weight metabolites and serum proteins. Sulforhodamine B (SRB) (0.4%, […]) was added to each well. Following a 5 min incubation at room temperature, plates were rinsed 5 times with 0.1% acetic acid and air dried. […] Optical density was measured at 570 nm.

A121 (ovarian carcinoma) = assay: as above; type: cell-based, human; conditions: 72 h drug exposure
Procedure: as §1, §2

[2] = tested on: MCF7-R (mammary carcinoma cells 180-fold resistant to adriamycin); assay: as above; type: cell-based, human
Procedure: as §1, §2

HT-29 (colon carcinoma) = assay: as above; type: cell-based, human; conditions: 72 h drug exposure
Procedure: as §1, §2

[3] = tested on: A549 (non-small cell lung carcinoma); assay: as above; type: cell-based, human; conditions: 72 h drug exposure; read-out: A549 (NSCLC) IC50
Procedure: as §1, §2

[4] = tested on: human colon carcinoma cells HCT-116; conditions: cited from earlier work
[5] = tested on: docetaxel-resistant melanoma, B16/TXT; assay: intravenous administration to B16/TXT melanoma-bearing mice; type: in vivo, B6D2F1 female mice; set-up: key to Responses (activity rating): A = active; HA = highly active
Procedure: (§3) The efficacy of the test compounds on solid tumors in vivo was determined experimentally according to the following general experimental protocol:
(§4) The mice subjected to the experiment were subcutaneously grafted bilaterally with 30 to 60 mg of a tumor fragment on day zero. Mice bearing tumors were mixed before being subjected to the various treatments and controls. In the case of treatment of advanced tumors, tumors were allowed to develop to the desired size, and mice having insufficiently developed tumors were eliminated. The selected mice were distributed at random to undergo the treatments and controls. Mice not bearing tumors may also be subjected to the same treatments as the tumor-bearing mice in order to be able to dissociate the toxic effect from the specific effect on the tumor. Chemotherapy generally began from 3 to 22 days after grafting, depending on the type of tumor, and the mice were observed every day. The different mice groups were weighed 3 or 4 times a week until the maximum weight loss was attained (nadir), and the groups were then weighed at least once a week until the end of the trial.
(§5) The tumors were measured 2 or 3 times a week until the tumor reached approximately 2 grams, or until the animal died, if this occurred before the tumor reached 2 grams. The mice were autopsied when sacrificed.
(§6) The antitumor activity was determined in accordance with different parameters recorded such as dose (mg/kg), mode of administration, time of administration, cytotoxicity, toxicity and log10 cell kill.
SB-T-1213, SB-T-121303, SB-T-121304 and SB-T-1250 were evaluated in B6D2F1 female mice bearing the docetaxel-resistant melanoma, B16/TXT. The general experimental protocol was as described above. The compounds evaluated were administered intravenously on an intermittent schedule on days 3, 5, and 7 post tumor implantation.

MCF-7 ADRr = assay: growth inhibition by cell counts, 72 h; type: cell-based, human; conditions: 72 h; read-out: MCF-7 ADRr IC50
Procedure: (§7) Cells were plated in 6-well flat bottom plates (Falcon, Lincoln Park, N.J.) at a concentration of 10^5 cells ml in complete medium. After 24 h, the medium was replaced with media containing the test substances. Control cells were treated with vehicle alone. Cells were then washed twice and cultures maintained up to 72 h in complete medium (without removing the test substances). At this time point quadruplicate counts of triplicate cultures were performed. To calculate the growth inhibition effect, three independent experiments were performed for each test substance/cell line. The IC50 values were then calculated by fitting the concentration-effect curve data obtained in the three experiments with the sigmoid-Emax model using nonlinear regression, weighted by the reciprocal of the square of the predicted effect according to the method of Motulsky, H. J. and Ransnas, L. A., FASEB J. 1:365-74 (1987).

WiDr = assay: growth inhibition by cell counts, 72 h; type: cell-based, human; conditions: read-out: WiDr IC50
Procedure: as §7

MCF-7 wt = assay: growth inhibition by cell counts, 72 h; type: cell-based, human; conditions: 72 h; read-out: MCF-7 wt IC50
Procedure: as §7

PC-3 = assay: growth inhibition by cell counts, 72 h; type: cell-based, human; conditions: 72 h
Procedure: as §7

A2780 = assay: growth inhibition by cell counts, 72 h; type: cell-based, human; conditions: 72 h; read-out: A2780 IC50
Procedure: as §7

DU-145 = assay: growth inhibition by cell counts, 72 h; type: cell-based, human; conditions: 72 h; read-out: DU-145 IC50
Procedure: as §7

NCI-H23 = assay: growth inhibition by cell counts, 72 h; type: cell-based, human; conditions: 72 h; read-out: NCI-H23 IC50
Procedure: as §7

B16 melanoma = assay: intravenous administration to mice bearing B16 melanoma; type: in vivo, B6D2F1 female mice; set-up: key to Responses (activity rating): A = active; HA = highly active
Procedure: as §3, §4, §5, §6
SB-T-1213, SB-T-121303, SB-T-121304 and SB-T-1250 were evaluated in B6D2F1 female mice bearing B16 melanoma. The general experimental protocol was as described above. The compounds evaluated were administered intravenously (iv) on an intermittent schedule on days 3, 5, and 7 post tumor implantation. With the exception of SB-T-1250, solutions of the compounds for administration were prepared in 5% ethanol, 5% polysorbate 80, and 90% glucose 5% water.

**Q.** For CC(=O)OC1C(=O)C2(C)C(O)CC3OCC3(OC(C)=O)C2C(OC(=O)c2ccccc2)C2(O)CC(OC(=O)C(O)C(C=C(C)C)NC(=O)c3ccccc3)C(C)=C1C2(C)C (centres unmarked) [RAH-1, 3′-dephenyl-3′-isobutenylpaclitaxel], which “times better activity than docetaxel” value [1] is on record?
**A.** 9 times

**Q.** What about the “times better activity than paclitaxel” value [1] of the same molecule?
**A.** about 20 times

**Q.** And the IC50 (MCF7 (mammary carcinoma))?
**A.** 0.54 nM

**Q.** And the IC50 (A121 (ovarian carcinoma))?
**A.** 1.4 nM

**Q.** What about the IC50 ([2]; 72 h drug exposure, Table 1) of the same molecule?
**A.** 113 nM

**Q.** And the “activity against MCF7-R in words” value ([2]; one order of magnitude weaker than Taxoid Ia)?
**A.** only marginal activity

**Q.** And the IC50 (HT-29 (colon carcinoma))?
**A.** 0.96 nM

**Q.** And the IC50 [3]?
**A.** 0.45 nM

**Q.** And the “times better activity than docetaxel” value [4]?
**A.** 7 times

**Q.** And the “times better activity than paclitaxel” value [4]?
**A.** 4 times

**Q.** Which T/C ([5]; 2.8 mg/kg/adm., days 3, 5, 7) does the source give for “3′-dephenyl-3′-(2,2-dimethyl-1-cyclopropyl)-10-acetyldocetaxel [SB-T-1250]” here?
**A.** 152%

**Q.** And the T/C ([5]; 4.5 mg/kg/adm., days 3, 5, 7)?
**A.** 108%

**Q.** And the “Responses (activity rating)” value ([5]; 7.3 mg/kg/adm.)?
**A.** A

**Q.** And the T/C ([5]; 7.3 mg/kg/adm., days 3, 5, 7)?
**A.** 41%

**Q.** And the log10 cell kill ([5]; 7.3 mg/kg/adm., days 3, 5, 7)?
**A.** 1.1

**Q.** And the “% body weight loss at nadir” value ([5]; 7.3 mg/kg/adm., days 3, 5, 7, 7.3 mg/kg)?
**A.** 16.7% and 16.7 (4) %

**Q.** What about the highest nontoxic dose ([5]; days 3, 5, 7) of the same molecule?
**A.** 7.3 mg/kg/adm.

**Q.** And the IC50 (MCF-7 ADRr)?
**A.** 48 nM

**Q.** And the IC50 (WiDr)?
**A.** 0.5 nM

**Q.** And the IC50 (MCF-7 wt)?
**A.** 2.3 nM

**Q.** And the IC50 (PC-3)?
**A.** 0.7 nM

**Q.** What about the IC50 (A2780) of the same molecule?
**A.** 3.03 nM

**Q.** And the IC50 (DU-145)?
**A.** 0.6 nM

**Q.** And the IC50 (NCI-H23)?
**A.** 1.6 nM

**Q.** And the “Responses (activity rating)” value (B16 melanoma; 4.5 mg/kg/adm.)?
**A.** A

**Q.** And the T/C (B16 melanoma; 4.5 mg/kg/adm., days 3, 5, 7)?
**A.** 23%

**Q.** And the log10 cell kill (B16 melanoma; 4.5 mg/kg/adm., days 3, 5, 7)?
**A.** 1.2

**Q.** What about the “% body weight loss at nadir” value (B16 melanoma; 4.5 mg/kg/adm., days 3, 5, 7, 4.5 mg/kg) of the same molecule?
**A.** 12.5% and 12.5 (3) %

**Q.** And the “drug related deaths (DD)” value (B16 melanoma; 7.3 mg/kg/adm., days 3, 5, 7)?
**A.** ⅕

**Q.** And the “drug related deaths (DD)” value (B16 melanoma; 11.8 mg/kg/adm., days 3, 5, 7)?
**A.** ⅗

**Q.** What about the “drug related deaths (DD)” value (B16 melanoma; 19 mg/kg/adm., days 3, 5, 7) of the same molecule?
**A.** 100%

**Q.** What about the highest nontoxic dose (B16 melanoma; days 3, 5, 7) of the same molecule?
**A.** 4.5 mg/kg/adm.
